According to patent US5045566A, “Novel imidate insecticides” (ICI Americas Inc., priority 1989, dated 1991):

Experiments:
Format in all cases: in vivo
[1] = test system: Housefly [Musca domestica]; experiment: Housefly contact mortality in dishes (HF), 48 hours; conditions: μg of test compound per 25 female flies
Outline: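 LC50, as μg compound per 25 female flies, comes from dosage-mortality curves with doses from 100 μg downward. Residues were made by evaporating acetone plus 0.01% peanut oil in dishes, onto which 1-2-day-old females were caged; deaths were counted after 48 hours.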

[2] = test system: Cabbage Looper [Trichoplusia ni (Hubner)]; experiment: Cabbage looper leaf dip (CL), 3-5 days; conditions: percent in solution, second-instar larvae
Outline: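 Squash cotyledons dipped in test solution (acetone-water 50-50, ≤0.1%), dried, offered to 5 second-instar larvae; mortality after 3-5 days gives LC50.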

[3] = test system: Maize weevil [Sitophilus zeamais (Motschulsky)]; experiment: Maize weevil on dipped corn seeds (MW), 48 hours; conditions: percent in solution, adult weevils
Outline: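 LC50, given as percent of compound in dipping solution, comes from dosage-mortality curves over concentrations descending from 0.01%. Four corn seeds soaked 2-3 s in 50:50 acetone:water solution were dried and held with 10 adult weevils, about 25° C, mortality read after 48 h.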

[4] = test system: Black Bean Aphid [Aphis fabae (Scop.)]; experiment: Black bean aphid spray test on nasturtium (BBA), 48 hours; conditions: percent of test compound in sprayed solution
Outline: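 LC50, given as percent test compound in the sprayed liquid, was calculated from dosage-mortality curves using concentrations from 0.05% downward. Sprays in 50:50 acetone-water went to runoff on ~5 cm nasturtiums carrying 25-50 aphids of mixed ages, one day after infestation. Deaths were counted 48 h later under greenhouse conditions.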

[5] = test system: Tobacco Budworm [Heliothis virescens (Fabricius)] eggs; experiment: Tobacco budworm eggs (TBW-E); conditions: percent in solution; 2-day old eggs
Outline: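 Step 1: dip 2-day old egg patches in acetone test solutions (top concentration 0.1%). Step 2: hold in dishes with rearing medium at 78° F. Step 3: record mortality after control hatch and feeding.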

[6] = test system: Aster Leafhopper [Macrosteles fascifrens (Stal)]; experiment: Aster leafhopper on dipped oat seedlings (LH), 48 hours; conditions: percent in solution, adults/nymphs
Experimental: The compounds in Tables 1 and 2 above were tested for insecticidal activity using the following testing procedures. LC50 values, based on the results of these tests and calculated according to dosage-mortality curves, are expressed in Table 3.
Aster Leafhopper [Macrosteles fascifrens (Stal)]
Oat seedlings (Avena sp) were grown in a commercial potting soil in cups. When the plants were approximately 10 cm tall they were thinned to three plants per cup and dipped for 2-3 seconds in 50-50 acetone-water solutions of the test compounds. When the plants had dried, a clear plastic tube was placed over them and the bottom end pressed into the cup. Ten aster leafhopper adults/nymphs were then placed in each tube and the tops of the tubes covered with white organdy cloth. Mortality counts were made after 48 hours. Test concentrations ranged from 0.05% down to that at which 50% mortality occurred. The LC50 values are expressed below in Table 3 under the heading "LH" in terms of the percent of the test compound in the solution.

| SMILES | LC50 HF [1] [µg] | LC50 CL [2] [%] | LC50 MW [3] [%] | LC50 BBA [4] [%] | LC50 TBW E (eggs) [5] [%] | LC50 LH [6] [%] |
| --- | --- | --- | --- | --- | --- | --- |
| CCc1ccc(N=C(OCc2ccc(F)c(Oc3ccc(F)cc3)c2)C(C)C)cc1 [Compound 361] | < 100 | 0.001 | > 0.01 | 0.0003 | 0.04 | < 0.05 |
| CC(C)C(=Nc1ccc2c(c1)OCO2)OCc1ccc(F)c(Oc2ccc(Cl)cc2)c1 [Compound 366] | < 100 | 0.0007 | > 0.01 | 0.0006 | 0.012 | 0.05 |
| CC(C)C(=Nc1ccc(F)cc1)OCc1cccc(Oc2ccc(Br)cc2)c1 [Compound 259] | 15 | 0.0003 | > 0.01 | 0.006 | 0.05 | > 0.05 |
| FC(F)(F)C(=Nc1ccc(Cl)cc1)OCc1cccc(Oc2ccccc2)c1 [Compound 35] | 15 | 0.008 | > 0.01 |  | 0.03 | > 0.05 |
| C#CC(OC(=Nc1cccc(C(F)(F)F)c1)C(C)C)c1cccc(Oc2ccccc2)c1 (stereo not shown) [Compound 519] | 60 | 0.0037 | > 0.01 | > 0.05 | > 0.1 | > 0.05 |
| CC(C)C(=Nc1ccc(F)c(Cl)c1)OCC#CCOc1ccccc1 [Compound 534] | > 100 | < 0.1 | > 0.01 | > 0.05 | > 0.1 | > 0.05 |
| Cc1cccc(N=C(OCc2cccc(Oc3ccccc3)c2)C(C)C)c1 [Compound 155] | 9 | 0.004 | > 0.01 | 0.001 | 0.06 | > 0.05 |
| C#CCc1c(F)c(F)c(COC(=Nc2ccc3c(c2)OCO3)C(C)C)c(F)c1F [Compound 547] | < 100 | 0.0005 | > 0.01 | 0.0006 | 0.05 | < 0.05 |
| CCC(=Nc1ccc2c(c1)OCO2)OCc1cccc(Oc2ccccc2)c1 [Compound 178, N-(3,4-Methylenedioxyphenyl)-O-(3-phenoxybenzyl)propionimidate] | 6 | 0.004 | > 0.01 | 0.05 | > 0.1 | > 0.05 |
| CC(C)C(=Nc1ccc(Cl)cc1)OCc1cccc(Oc2ccc(F)cc2)c1 [Compound 189] | 17 | 0.00027 | > 0.01 |  | 0.07 | 0.002 |
| CC(C)C(=Nc1ccc(OC(F)(F)F)cc1)OCc1cccc(Cc2ccccc2)c1 [Compound 542] | > 100 | > 0.01 | > 0.01 | > 0.05 | > 0.1 | > 0.05 |
| CC(C)C(=Nc1ccc(F)c(Cl)c1)OCc1cccc(Oc2ccc(Cl)cn2)c1 [Compound 527] | 47 | 0.00065 | > 0.01 | 0.03 | 0.035 | > 0.05 |
| CC(C)C(=Nc1cccc(C(F)(F)F)c1)OCc1cccc(Oc2ccc(Cl)cn2)c1 [Compound 518] | > 100 | 0.00075 | > 0.01 | > 0.05 | > 0.1 | > 0.05 |
| Cc1ccc(N=C(OCc2ccc(F)c(Oc3ccc(F)cc3)c2)C(C)C)cc1Cl [Compound 357] | < 100 | > 0.1 | 0.01 | 0.0003 | > 0.1 | < 0.05 |
| CCC(=Nc1ccc(F)c(F)c1)OCc1coc(Cc2ccccc2)c1 [Compound 524] | 5.2 | > 0.1 | > 0.01 | > 0.05 | > 0.1 | > 0.05 |
| CC(C)C(=Nc1ccc(Cl)c(C(F)(F)F)c1)OCc1cccc(Oc2ccc(F)cc2)c1 [Compound 193] | 100 | 0.00075 | > 0.01 |  | > 0.1 | 0.001 |
| CC(C)C(=Nc1ccc(OC(F)(F)F)cc1)OCc1cccc(Cc2ccccc2)c1 [Compound 538] | 75 | > 0.1 | > 0.01 |  | > 0.1 | > 0.05 |
| COCc1c(F)c(F)c(COC(=Nc2ccc(F)c(Cl)c2F)C(C)C)c(F)c1F [Compound 522] |  | > 0.1 | > 0.01 | 0.002 | > 0.1 | 0.05 |
| CC(C)C(=Nc1ccc2c(c1)OCO2)OCc1cccc(Oc2ccc(Cl)cc2)n1 [Compound 466] | 13 | 0.0008 | 0.01 |  | > 0.1 | > 0.05 |
| CC1(C(=Nc2ccc(Cl)cc2)OCc2cccc(Oc3ccccc3)c2)CC1 [Compound 5] | 21 | 0.005 | > 0.01 | 0.001 |  | > 0.05 |
| CCc1ccc(N=C(OCc2cccc(Oc3ccc(F)cc3)c2)C(C)C)cc1 [Compound 159] | 25 | 0.001 |  | 0.001 | 0.08 | 0.0025 |
| CC(C)C(=Nc1cc(Cl)c(Cl)c(Cl)c1)OCc1cccc(Oc2ccccc2)c1 [Compound 20] | 64 | 0.0025 |  | 0.0006 | < 0.1 | 0.003 |
| CC(C)C(=Nc1cccc(C(F)(F)F)c1)OCc1cc(Oc2ccc(F)cc2)ccn1 [Compound 528] |  | 0.0075 | > 0.01 | > 0.05 | > 0.1 | > 0.05 |
| Fc1ccc(Oc2cccc(COC(=Nc3ccc(F)c(Cl)c3)C(F)(F)C(F)(F)F)c2)cc1 [Compound 258] | > 100 | 0.003 |  | 0.01 | > 0.1 | > 0.05 |
| CC(C)C(=Nc1ccc(Cl)cc1)OC(C)c1cccc(Oc2ccccc2)c1 (stereo not shown) [Compound 457] | > 100 | 0.009 |  | > 0.05 | > 0.05 | > 0.05 |
| Cc1c(Cl)cc(N=C(OCc2cccc(Oc3ccccc3)c2)C(C)C)cc1Cl [Compound 101] | 81 | 0.0045 |  | 0.002 | > 0.1 | 0.0008 |
| CCc1ccc(N=C(OCc2cccc(Oc3ccccc3)c2)C(C)C)cc1 [Compound 161] | 15 | 0.0014 |  | 0.0006 | 0.07 | 0.002 |
| CC(C)C(=Nc1ccc(F)c(Cl)c1)OCc1cc(Oc2ccc(F)cc2)ccn1 [Compound 529] |  | > 0.0025 | > 0.01 | > 0.05 | > 0.1 | > 0.05 |
| CC(C)(C)C(=Nc1ccc(Br)cc1)OCc1cccc(Oc2ccccc2)c1 [Compound 135] | > 100 | 0.004 |  | > 0.05 | > 0.1 | > 0.05 |
| CC(C)C(=Nc1ccc(C(F)(F)F)c(Cl)c1)OCc1cccc(Oc2ccccc2)c1 [Compound 83] | > 100 | 0.007 |  | 0.05 | > 0.1 | > 0.05 |
